Source: patent US9820986B2, “Glycopeptide compositions” (TAIWAN HOPAZ CHEMS, MFG. CO., LTD., priority 2005, dated 2017)

Legend:
bone = experiment: Bone scintographic imaging studies; assay type: in vivo, normal female Fischer 344 rats; settings: 99mTc-labeled, 300 μCi, i.v.
[1] = Renal clearance of pamidronate; settings: in vivo
tumor = experiment: Tumor response to paclitaxel treatment, imaged with 99mTc-glycopeptide; assay type: in vivo, rats; settings: paclitaxel 40 mg/kg iv
Experimental: To assess anti-angiogenic treatment response, rats were treated with paclitaxel (40 mg/kg,iv), followed by imaging with ^99mTc-glycopeptide on day 4. Tumor uptake and in situ hybridization (ISH) and TUNEL assays were conducted pre- and post-paclitaxel treatment.

SMILES | bone targeting (bone) | renal clearance [1] | tumor progression (tumor; day 4, compared to 99mTc-glycopeptide baseline) | tumor necrosis (tumor; post-treatment)
NCCC(O)(P(=O)(O)O)P(=O)(O)O [Pamidronate] | targets bone poorly | quick renal clearance | – | –
CC(=O)O[C@H]1C(=O)[C@@]2(C)[C@H]([C@H](OC(=O)c3ccccc3)[C@]3(O)C[C@H](OC(=O)[C@H](O)[C@@H](NC(=O)c4ccccc4)c4ccccc4)C(C)=C1C3(C)C)[C@]1(OC(C)=O)CO[C@@H]1C[C@@H]2O [paclitaxel] | – | – | no marked tumor progression | clearly seen
